{"source": "paper PMC10295947", "about": "(Biomolecules, 2023)", "target": "MOR (Mus musculus, UniProt P42866)", "sequence (P42866 whole entry)": "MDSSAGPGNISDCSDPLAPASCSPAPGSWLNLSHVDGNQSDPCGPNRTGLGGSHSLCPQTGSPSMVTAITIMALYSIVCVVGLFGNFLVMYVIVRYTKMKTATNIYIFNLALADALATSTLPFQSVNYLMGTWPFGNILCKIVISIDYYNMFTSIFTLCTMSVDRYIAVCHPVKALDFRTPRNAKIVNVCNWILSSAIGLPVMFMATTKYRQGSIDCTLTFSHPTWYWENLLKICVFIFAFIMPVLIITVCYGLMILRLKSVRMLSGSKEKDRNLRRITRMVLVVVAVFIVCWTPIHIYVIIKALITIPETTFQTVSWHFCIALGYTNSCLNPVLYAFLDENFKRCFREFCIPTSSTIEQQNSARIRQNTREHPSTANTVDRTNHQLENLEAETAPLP", "type": "biochemical", "note": "Structures can show the parent of a compound that is named as a salt."}
{"molecule": "COc1ccsc1CNCC[C@@]1(c2ccccn2)CCOC2(CCCC2)C1", "note": "[oliceridine, Oliceridine hydrochloride]", "values": [{"measurement": "Stimulation of 35S-GTPγS binding (in words)", "result": "no measurable stimulation"}]}
